Laboratory results: ChEMBL document CHEMBL1144281, “Inhibitors of type I MetAPs containing pyridine-2-carboxylic acid thiazol-2-ylamide. Part 2: SAR studies on the pyridine ring 3-substituent” (Bioorg Med Chem Lett, 2005)

Legend:
[1] = Inhibitory concentration against Methionine aminopeptidase-1 (EcMetAP1); design: species or system Escherichia coli
[2] = Inhibitory concentration against Methionine aminopeptidase-1 (ScMetAP1); design: species or system Saccharomyces cerevisiae

Row | Structure (SMILES) | IC50 [1] [nM] | IC50 [2] [nM]
1 | C=CC(=O)Nc1cccnc1C(=O)Nc1nccs1 | > 100000 | 620
2 | O=C(CC1CCCC1)Nc1cccnc1C(=O)Nc1nccs1 | 790 | 6720
3 | CC1(C)OC1CC(=O)Nc1cccnc1C(=O)Nc1nccs1 (centres undefined) | 700 | 3370
4 | C=CCCC(=O)Nc1cccnc1C(=O)Nc1nccs1 | 510 | 12200
5 | O=C(Nc1nccs1)c1ncccc1NC(=O)C1CCC1 | > 100000 | > 100000
6 | O=C(Nc1nccs1)c1ncccc1NC(=O)C1CCCC1 | 350 | 2580
7 | O=C(Nc1nccs1)c1ncccc1NC(=O)C1CC=CCC1 (centres undefined) | 810 | 15100
8 | O=C(CC1=CCCC1)Nc1cccnc1C(=O)Nc1nccs1 | 190 | 5070
9 | CC(C)=CC(=O)Nc1cccnc1C(=O)Nc1nccs1 | 220 | 770
10 | CC(C)=CCC(=O)Nc1cccnc1C(=O)Nc1nccs1 | 240 | 140
11 | O=C(O)c1ccccc1C(=O)Nc1cccnc1C(=O)Nc1nccs1 | 330 | 2270
12 | O=C(Nc1cccnc1C(=O)Nc1nccs1)C1=CCCCC1 | 970 | 21900
13 | O=C(O)C(=O)Nc1cccnc1C(=O)Nc1nccs1 | 620 | > 100000
14 | C/C=C/C(=O)Nc1cccnc1C(=O)Nc1nccs1 | > 100000 | 820
15 | CC1(C)OC1CCC(=O)Nc1cccnc1C(=O)Nc1nccs1 (centres undefined) | 560 | 3300
16 | O=C(Nc1cccnc1C(=O)Nc1nccs1)C1=CCCC1 | 360 | 5170
17 | CC(C)=CCCC(=O)Nc1cccnc1C(=O)Nc1nccs1 | 610 | 310
18 | O=C(Nc1nccs1)c1ccccn1 | 5000 | 7000
19 | C=C(C)CC(=O)Nc1cccnc1C(=O)Nc1nccs1 | 150 | 4670

The next molecules have a lower IC50 [1] than those just listed; values first:

Row | IC50 [1] [nM] | IC50 [2] [nM] | Structure (SMILES)
20 | 59 | 510 | O=C(CN1CCOCC1)Nc1cccnc1C(=O)Nc1nccs1
21 | 53 | 190 | O=C(CN1CCCCC1)Nc1cccnc1C(=O)Nc1nccs1
22 | 90 | 150 | O=C(CN1CCCC1)Nc1cccnc1C(=O)Nc1nccs1
23 | 57 | 230 | O=C(CN(O)c1ccccc1)Nc1cccnc1C(=O)Nc1nccs1
24 | 49 | 380 | CC(C)(C)OC(=O)NCC(=O)Nc1cccnc1C(=O)Nc1nccs1
25 | 140 | 2270 | O=C(O)CCC(=O)Nc1cccnc1C(=O)Nc1nccs1
26 | 60 | 330 | O=C(Nc1cccnc1C(=O)Nc1nccs1)c1cccnc1
27 | 120 | 420 | CN(C)CC(=O)Nc1cccnc1C(=O)Nc1nccs1
28 | 50 | 770 | CCOC(=O)C(=O)Nc1cccnc1C(=O)Nc1nccs1
29 | 140 | 1520 | O=C(O)CC(=O)Nc1cccnc1C(=O)Nc1nccs1
30 | 130 | 2560 | O=C(Nc1nccs1)c1ncccc1NC(=O)C1CC1
31 | 120 | 8910 | O=C(CC1=CCCCC1)Nc1cccnc1C(=O)Nc1nccs1
32 | 75 | 720 | CCOC(=O)CC(=O)Nc1cccnc1C(=O)Nc1nccs1
33 | 49 | 230 | CCN(CC)CC(=O)Nc1cccnc1C(=O)Nc1nccs1
34 | 49 | 150 | CC(C)(C)OC(=O)NCCC(=O)Nc1cccnc1C(=O)Nc1nccs1
35 | 92 | 210 | NCC(=O)Nc1cccnc1C(=O)Nc1nccs1
36 | 74 | 130 | NCCC(=O)Nc1cccnc1C(=O)Nc1nccs1
37 | 130 | 380 | C=CCC(=O)Nc1cccnc1C(=O)Nc1nccs1
